Reference: PubChem BioAssay AID248 (DTP/NCI, 2004)
Where “and” joins values, the source holds several entries; their conditions need not be identical. Identical values can stand only once. Toxic doses and inconclusive results are not listed. Cut-off read from the data, not from the text of the source: active = T/C of 150% or more; inactive = T/C below 125%.

Tested on: L1210 leukemia ip in BDF1 mice, survival T/C
Assay: NCI In Vivo Anticancer Drug Screen. Data for tumor model L1210 Leukemia (intraperitoneal) in B6D2F1 (BDF1) mice
Conditions: endpoint: mean survival time, higher = longer survival
Procedure, shortened: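 Survival endpoint. Drug-treated group vs vehicle group, expressed as T divided by C. Tumor passaged by transplantation.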

[1] = dose: 100.0 mg/kg/injection, schedule: Q04DX003 (ip), vehicle: carboxymethylcellulose (CMC)
[2] = dose: 200.0 mg/kg/injection, schedule: Q04DX003 (ip), vehicle: carboxymethylcellulose (CMC)
[3] = dose: 400.0 mg/kg/injection, schedule: Q04DX003 (ip), vehicle: carboxymethylcellulose (CMC)
[4] = dose: 100.0 mg/kg/injection, schedule: Q01DX001 (ip), vehicle: Klucel (hydroxypropylcellulose) (HPC)
[5] = dose: 200.0 mg/kg/injection, schedule: Q01DX001 (ip), vehicle: Klucel (hydroxypropylcellulose) (HPC)
[6] = dose: 400.0 mg/kg/injection, schedule: Q01DX001 (ip), vehicle: Klucel (hydroxypropylcellulose) (HPC)
[7] = dose: 100.0 mg/kg/injection, schedule: Q01DX009 (ip), vehicle: saline
[8] = dose: 200.0 mg/kg/injection, schedule: Q04DX003 (ip), vehicle: saline with Tween-80
[9] = dose: 100.0 mg/kg/injection, schedule: Q01DX001 (ip), vehicle: saline
[10] = dose: 200.0 mg/kg/injection, schedule: Q01DX001 (ip), vehicle: saline
[11] = dose: 400.0 mg/kg/injection, schedule: Q01DX001 (ip), vehicle: saline
[12] = dose: 100.0 mg/kg/injection, schedule: Q04DX002 (ip), vehicle: Klucel (hydroxypropylcellulose) (HPC)
[13] = dose: 200.0 mg/kg/injection, schedule: Q04DX002 (ip), vehicle: Klucel (hydroxypropylcellulose) (HPC)
[14] = dose: 400.0 mg/kg/injection, schedule: Q04DX002 (ip), vehicle: Klucel (hydroxypropylcellulose) (HPC)
[15] = dose: 100.0 mg/kg/injection, schedule: Q04DX003 (ip), vehicle: Klucel (hydroxypropylcellulose) (HPC)
[16] = dose: 200.0 mg/kg/injection, schedule: Q04DX003 (ip), vehicle: Klucel (hydroxypropylcellulose) (HPC)

Measured: T/C

CCOC(=O)/C(C(=S)NC(=O)c1ccc(Br)cc1)=C(/C)N
inactive: [1] 95 % of control | [2] 90 % of control | [3] 98 % of control

CC1(C)CC2(C)OC3(C)CC(C)(C)OC3(C)OC2(C)O1 (stereo unspecified)
inactive: [4] 107 % of control | [5] 102 % of control | [6] 102 % of control

CC1CCCNC1C (stereo unspecified)
inactive: dose: 25.0 mg/kg/injection, schedule: Q01DX009 (ip), vehicle: saline 95 % of control | dose: 50.0 mg/kg/injection, schedule: Q01DX009 (ip), vehicle: saline 103 % of control | dose: 100.0 mg/kg/injection, schedule: Q01DX009 (ip), vehicle: saline with Tween-80 102 % of control | [7] 100 % of control

NC(=O)NNC1OCC(O)C(O)C1O (stereo unspecified)
inactive: [7] 90 % of control | dose: 100.0 mg/kg/injection, schedule: Q04DX003 (ip), vehicle: water 96 % of control | dose: 200.0 mg/kg/injection, schedule: Q01DX009 (ip), vehicle: saline 95 % of control | dose: 200.0 mg/kg/injection, schedule: Q04DX003 (ip), vehicle: water 96 % of control | dose: 400.0 mg/kg/injection, schedule: Q01DX009 (ip), vehicle: saline 97 % of control | dose: 400.0 mg/kg/injection, schedule: Q04DX003 (ip), vehicle: water 97 % of control

CC(=O)NC1C(OC(C)=O)OC(COC(c2ccccc2)(c2ccccc2)c2ccccc2)C(O)C1OC(C)=O (stereo unspecified)
inactive: dose: 6.25 mg/kg/injection, schedule: Q01DX009 (ip), vehicle: saline with Tween-80 96 % of control | dose: 12.5 mg/kg/injection, schedule: Q01DX009 (ip), vehicle: saline with Tween-80 93 % of control | dose: 25.0 mg/kg/injection, schedule: Q01DX009 (ip), vehicle: saline with Tween-80 93 % of control | dose: 25.0 mg/kg/injection, schedule: Q04DX003 (ip), vehicle: saline with Tween-80 109 % of control | dose: 50.0 mg/kg/injection, schedule: Q01DX009 (ip), vehicle: saline with Tween-80 93 % of control | dose: 50.0 mg/kg/injection, schedule: Q04DX003 (ip), vehicle: saline with Tween-80 121 % of control | [8] 91 % of control | dose: 400.0 mg/kg/injection, schedule: Q04DX003 (ip), vehicle: saline with Tween-80 88 % of control

O=C(O)c1scc2c1CCCC2
inactive: dose: 100.0 mg/kg/injection, schedule: Q04DX003 (ip), vehicle: saline with Tween-80 97 % of control | [8] 87 % of control

O=[N+]([O-])c1cc2c3c(cccc3c1)CC2
inactive: [9] 95 % of control and 97 % of control | dose: 100.0 mg/kg/injection, schedule: Q04DX002 (ip), vehicle: saline 105 % of control | [10] 100 % of control | dose: 200.0 mg/kg/injection, schedule: Q04DX002 (ip), vehicle: saline 100 % of control | [11] 100 % of control and 110 % of control | dose: 400.0 mg/kg/injection, schedule: Q04DX002 (ip), vehicle: saline 101 % of control

CCCCCC1(C)OCC(CCl)O1 (stereo unspecified)
inactive: dose: 222.0 mg/kg/injection, schedule: Q01DX Z (ip), vehicle: saline 107 % of control | dose: 333.0 mg/kg/injection, schedule: Q01DX Z (ip), vehicle: saline 97 % of control | dose: 500.0 mg/kg/injection, schedule: Q01DX Z (ip), vehicle: saline 89 % of control

Nc1c(Cl)c(Cl)nc(C(=O)O)c1Cl
inactive: dose: 6.25 mg/kg/injection, schedule: Q01DX009 (ip), vehicle: Klucel (hydroxypropylcellulose) (HPC) 98 % of control | dose: 12.5 mg/kg/injection, schedule: Q01DX009 (ip), vehicle: Klucel (hydroxypropylcellulose) (HPC) 98 % of control | dose: 50.0 mg/kg/injection, schedule: Q01DX009 (ip), vehicle: Klucel (hydroxypropylcellulose) (HPC) 100 % of control | dose: 100.0 mg/kg/injection, schedule: Q01DX009 (ip), vehicle: Klucel (hydroxypropylcellulose) (HPC) 95 % of control | dose: 200.0 mg/kg/injection, schedule: Q01DX009 (ip), vehicle: Klucel (hydroxypropylcellulose) (HPC) 97 % of control

O=C1c2ccccc2C(=O)N1CC#CCN1C(=O)c2ccccc2C1=O
inactive: [12] 102 % of control | [13] 91 % of control | [14] 112 % of control

CCN(CC)N=Nc1ccccc1-c1nc(N)c2ccccc2n1
inactive: [15] 95 % of control | [16] 98 % of control

FC(F)(F)COC(Br)CBr (stereo unspecified)
inactive: dose: 15.0 mg/kg/injection, schedule: Q01DX001 (ip), vehicle: carboxymethylcellulose (CMC) 101 % of control | dose: 30.0 mg/kg/injection, schedule: Q01DX001 (ip), vehicle: carboxymethylcellulose (CMC) 93 % of control | dose: 60.0 mg/kg/injection, schedule: Q01DX001 (ip), vehicle: carboxymethylcellulose (CMC) 95 % of control

C/C=C(/C)C(=O)O[C@H]1CCN2CC=C(COC(=O)[C@@](O)([C@H](C)OC)C(C)(C)O)[C@H]12
inactive: dose: 5.0 mg/kg/injection, schedule: Q01DX001 (ip), vehicle: other 100 % of control | dose: 7.5 mg/kg/injection, schedule: Q04DX003 (ip), vehicle: Klucel (hydroxypropylcellulose) (HPC) 97 % of control | dose: 10.0 mg/kg/injection, schedule: Q01DX001 (ip), vehicle: other 105 % of control | dose: 15.0 mg/kg/injection, schedule: Q04DX003 (ip), vehicle: Klucel (hydroxypropylcellulose) (HPC) 103 % of control | dose: 20.0 mg/kg/injection, schedule: Q01DX001 (ip), vehicle: other 100 % of control | dose: 30.0 mg/kg/injection, schedule: Q04DX003 (ip), vehicle: Klucel (hydroxypropylcellulose) (HPC) 103 % of control | dose: 40.0 mg/kg/injection, schedule: Q01DX001 (ip), vehicle: other 102 % of control | dose: 60.0 mg/kg/injection, schedule: Q04DX003 (ip), vehicle: Klucel (hydroxypropylcellulose) (HPC) 97 % of control | dose: 80.0 mg/kg/injection, schedule: Q01DX001 (ip), vehicle: other 103 % of control

COc1ccc(C2OCC(C)([N+](=O)[O-])CO2)cc1 (stereo unspecified)
inactive: dose: 50.0 mg/kg/injection, schedule: Q01DX001 (ip), vehicle: Klucel (hydroxypropylcellulose) (HPC) 94 % of control | dose: 50.0 mg/kg/injection, schedule: Q04DX002 (ip), vehicle: Klucel (hydroxypropylcellulose) (HPC) 103 % of control | [4] 96 % of control | [12] 96 % of control and 102 % of control | [5] 98 % of control | [13] 96 % of control and 100 % of control | [6] 98 % of control | [14] 99 % of control and 121 % of control

O=CO.[Cr]
inactive: [9] 102 % of control | [10] 98 % of control | [11] 98 % of control

CN(C(=S)c1ccc(Cl)cc1)c1ccccc1
inactive: [4] 103 % of control | [15] 92 % of control | [5] 98 % of control | [16] 102 % of control | [6] 103 % of control | dose: 400.0 mg/kg/injection, schedule: Q04DX003 (ip), vehicle: Klucel (hydroxypropylcellulose) (HPC) 97 % of control

Cc1ccc(NC(=S)N(CCC#N)Cc2ccccc2)cc1C
inactive: dose: 100.0 mg/kg/injection, schedule: Q01DX001 (ip), vehicle: carboxymethylcellulose (CMC) 94 % of control | dose: 100.0 mg/kg/injection, schedule: Q01DX009 (ip), vehicle: carboxymethylcellulose (CMC) 93 % of control and 107 % of control | dose: 100.0 mg/kg/injection, schedule: Q04DX002 (ip), vehicle: carboxymethylcellulose (CMC) 98 % of control | [1] 90 % of control | dose: 200.0 mg/kg/injection, schedule: Q01DX001 (ip), vehicle: carboxymethylcellulose (CMC) 100 % of control | dose: 200.0 mg/kg/injection, schedule: Q01DX009 (ip), vehicle: carboxymethylcellulose (CMC) 89 % of control and 91 % of control | dose: 200.0 mg/kg/injection, schedule: Q04DX002 (ip), vehicle: carboxymethylcellulose (CMC) 101 % of control and 88 % of control | [2] 95 % of control | dose: 400.0 mg/kg/injection, schedule: Q01DX001 (ip), vehicle: carboxymethylcellulose (CMC) 90 % of control | dose: 400.0 mg/kg/injection, schedule: Q01DX009 (ip), vehicle: carboxymethylcellulose (CMC) 86 % of control | dose: 400.0 mg/kg/injection, schedule: Q04DX002 (ip), vehicle: carboxymethylcellulose (CMC) 95 % of control and 88 % of control | [3] 90 % of control
